From US20230365554A1, “SUBSTITUTED PYRROLO-PYRIDINONE DERIVATIVES AND THERAPEUTIC USES THEREOF” (The Broad Institute, Inc., priority 2020, published 2023)
pIC50: −log10 of the molar value. Several values for one entry are separate records, joined by “and”; a condition that tells them apart may be missing. Equal values may be shown once.

Target: wild-type Epidermal Growth Factor Receptor (EGFR) (Homo sapiens (Human), UniProt P00533)
Assay: WT-EGFR kinase assay (TR-FRET, 2 mM ATP)
Format: biochemical
Conditions: median or individual measurements, Table 3, read-out: EGFR Wildtyp-2mM ATP IC50 [mol/l] (median)
Excerpt: Inhibitory activity of compounds of the present invention against wild-type Epidermal Growth Factor Receptor (EGFR) was quantified employing the TR-FRET based EGFR assay as described in the following paragraphs.
Recombinant fusion protein of N-terminal Glutathion-S-Transferase (GST) and a fragment of human EGFR (amino acids R669 to A1210), expressed in Sf9 insect cells and purified via affinity chromatography using Glutathion Sepharose as described above, was used as kinase. As substrate for the kinase reaction the biotinylated peptide biotin-Ahx-AEEEEYFELVAKKK (C-terminus in amide form) was used which can be purchased e.g. form the company Biosynthan GmbH (Berlin-Buch, Germany).
For the assay 50 nl of a 100 fold concentrated solution of the test compound in DMSO was pipetted into either a black low volume 384 well microtiter plate or a black 1536 well microtiter plate (both Greiner Bio-One, Frickenhausen, Germany), 2 μL of a solution of EGFR in aqueous assay buffer [50 mM Hepes pH 7.0, 10 mM MgCl2, 1 mM dithiothreitol, 0.5 mM EGTA, 0.3 mM activated sodium ortho-vanadate, 0.005% (w/v) bovine serum albumin, 0.005% (v/v) Tween-20] were added and the mixture was incubated for 15 min at 22° C. to allow pre-binding of the test compounds to the enzyme before the start of the kinase reaction. Then the kinase reaction was started by the addition of 3 μL of a solution of adenosine-tri-phosphate (ATP, 3.33 mM=>final conc. in the 5 μL assay volume is 2 mM) and substrate (1.67 μM=>final conc. in the 5 μL assay volume is 1 μM) in assay buffer and the resulting mixture was incubated for a reaction time of 30 min at 22° C. The concentration of EGFR was adjusted depending of the activity of the enzyme lot and was chosen appropriate to have the assay in the linear range, typical concentration was 7.6 pg/μL. The reaction was stopped by the addition of 3 μL of a solution of HTRF detection reagents (83.3 nM streptavidine-XL665 [Cisbio Bioassays, Codolet, France] and 1.67 nM PT66-Tb-Cryptate, a terbium-cryptate labelled anti-phospho-tyrosine antibody from Cisbio Bioassays [instead of the PT66-Tb-cryptate PT66-Eu-Chelate from Perkin Elmer can also be used]) in an aqueous EDTA-solution (133.3 mM EDTA, 0.2% (w/v) bovine serum albumin in 50 mM HEPES pH 7.5).
The resulting mixture was incubated 1 h at 22° C. to allow the binding of the biotinylated phosphorylated peptide to the streptavidine-XL665 and the PT66-Tb-Cryptate. Subsequently the amount of phosphorylated substrate was evaluated by measurement of the resonance energy transfer from the PT66-Tb-Cryptate to the streptavidine-XL665. Therefore, the fluorescence emissions at 620 nm and 665 nm after excitation at 337 nm were measured in a HTRF reader, e.g. a Pherastar (BMG Labtechnologies, Offenburg, Germany) or a Viewlux (Perkin-Elmer). The ratio of the emissions at 665 nm and at […] was taken as the measure for the amount of phosphorylated substrate. The data were normalised (enzyme reaction without inhibitor=0% inhibition, all other assay components but no enzyme=100% inhibition).

Sequence of wild-type Epidermal Growth Factor Receptor (EGFR) (P00533 669-1210): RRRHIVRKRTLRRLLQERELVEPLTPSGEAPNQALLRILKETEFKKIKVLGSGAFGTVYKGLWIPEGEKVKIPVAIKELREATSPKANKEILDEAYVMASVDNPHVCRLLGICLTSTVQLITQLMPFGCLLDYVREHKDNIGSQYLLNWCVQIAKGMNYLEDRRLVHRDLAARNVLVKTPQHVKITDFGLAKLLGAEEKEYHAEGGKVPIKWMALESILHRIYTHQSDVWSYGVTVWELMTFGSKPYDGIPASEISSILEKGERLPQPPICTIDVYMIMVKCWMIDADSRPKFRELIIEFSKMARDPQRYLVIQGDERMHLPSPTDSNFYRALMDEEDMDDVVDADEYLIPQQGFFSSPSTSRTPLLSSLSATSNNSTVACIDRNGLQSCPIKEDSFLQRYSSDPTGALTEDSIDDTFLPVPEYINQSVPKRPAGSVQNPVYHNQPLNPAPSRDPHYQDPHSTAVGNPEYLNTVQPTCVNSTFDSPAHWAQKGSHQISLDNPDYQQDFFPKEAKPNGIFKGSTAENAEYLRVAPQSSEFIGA

| SMILES | pIC50 | IC50 |
| --- | --- | --- |
| Cn1ccc2[nH]c(-c3ccnc(NC(=O)C(CC(F)F)c4ccc(F)cc4)c3)c(Nc3ccccc3)c2c1=O (single isomer, unassigned) [Example 29, N-[4-(3-anilino-5-methyl-4-oxo-4,5-dihydro-1H-pyrrolo[3,2-c]pyridin-2-yl)pyridin-2-yl]-4,4-difluoro-2-(4-fluorophenyl)butanamide] | < 4.70 |  |
| Cn1cc(CC(F)(F)F)c2[nH]c(-c3ccnc(NC(=O)C(CC(F)F)c4ccc(F)cc4)c3)c(Nc3ccccc3)c2c1=O (single isomer, unassigned) [Example 36, N-{4-[3-anilino-5-methyl-4-oxo-7-(2,2,2-trifluoroethyl)-4,5-dihydro-1H-pyrrolo[3,2-c]pyridin-2-yl]pyridin-2-yl}-4,4-difluoro-2-(4-fluorophenyl)butanamide] | 5.96 |  |
| CN1CC(CC2CC2)c2[nH]c(-c3ccnc(NC(=O)Cc4ccc(F)cc4)c3)c(Nc3cscn3)c2C1=O (racemic) [Example 49, N-{4-[(7RS)-7-(cyclopropylmethyl)-5-methyl-4-oxo-3-(1,3-thiazol-4-ylamino)-4,5,6,7-tetrahydro-1H-pyrrolo[3,2-c]pyridin-2-yl]pyridin-2-yl}-2-(4-fluorophenyl)acetamide] | < 4.70 |  |
| CN1CC(CC(F)(F)F)c2[nH]c(-c3ccnc(NC(=O)Cc4ccc(F)cc4)c3)c(Nc3ccccc3)c2C1=O (racemic) [Example 14, N-{4-[3-anilino-5-methyl-4-oxo-7-(2,2,2-trifluoroethyl)-4,5,6,7-tetrahydro-1H-pyrrolo[3,2-c]pyridin-2-yl]pyridin-2-yl}-2-(4-fluorophenyl)acetamide] | 5.96 |  |
| Cc1ccccc1Nc1c(-c2ccnc(NC(=O)Cc3ccc(F)cc3)c2)[nH]c2c(CC(F)(F)F)cn(C)c(=O)c12 [Example 33, 2-(4-fluorophenyl)-N-{4-[5-methyl-3-(2-methylanilino)-4-oxo-7-(2,2,2-trifluoroethyl)-4,5-dihydro-1H-pyrrolo[3,2-c]pyridin-2-yl]pyridin-2-yl}acetamide] | 8.15 |  |
| CN1CC(CC(F)(F)F)c2[nH]c(-c3ccnc(NC(=O)Cc4ccc(F)cc4)c3)c(Nc3cscn3)c2C1=O (racemic) [Example 46, 2-(4-fluorophenyl)-N-{4-[(7RS)-5-methyl-4-oxo-3-(1,3-thiazol-4-ylamino)-7-(2,2,2-trifluoroethyl)-4,5,6,7-tetrahydro-1H-pyrrolo[3,2-c]pyridin-2-yl]pyridin-2-yl}acetamide] | < 4.70 |  |
| CCC1CNC(=O)c2c1[nH]c(-c1ccnc(NC(=O)Cc3ccc(F)cc3)c1)c2Nc1ccccc1 (racemic) [Example 1, N-{4-[3-anilino-7-ethyl-4-oxo-4,5,6,7-tetrahydro-1H-pyrrolo[3,2-c]pyridin-2-yl]pyridin-2-yl}-2-(4-fluorophenyl)acetamide] | 7.24 |  |
| Cc1cn(C)c(=O)c2c(Nc3ccccc3)c(-c3ccnc(NC(=O)C(CC(F)F)c4ccc(F)cc4)c3)[nH]c12 (single isomer, unassigned) [Example 13, N-[4-(3-anilino-5,7-dimethyl-4-oxo-4,5-dihydro-1H-pyrrolo[3,2-c]pyridin-2-yl)pyridin-2-yl]-4,4-difluoro-2-(4-fluorophenyl)butanamide] | < 4.70 |  |
| Cn1ccc2[nH]c(-c3ccnc(NC(=O)C(CC(F)F)c4ccc(F)cc4)c3)c(Nc3ccccc3)c2c1=O (single isomer, unassigned) [Example 30, N-[4-(3-anilino-5-methyl-4-oxo-4,5-dihydro-1H-pyrrolo[3,2-c]pyridin-2-yl)pyridin-2-yl]-4,4-difluoro-2-(4-fluorophenyl)butanamide] |  | > 20 µM (2×) and 3.9 µM and 5.1 µM and 5.5 µM and 7.2 µM and 15 µM and 10 µM |
| CN1CC(CC(F)(F)F)c2[nH]c(-c3ccnc(NC(=O)C(CC(F)F)c4ccc(F)cc4)c3)c(Nc3cscn3)c2C1=O (racemic) [Example 52, (2RS)-4,4-difluoro-2-(4-fluorophenyl)-N-{4-[(7RS)-5-methyl-4-oxo-3-[(1,3-thiazol-4-yl)amino]-7-(2,2,2-trifluoroethyl)-4,5,6,7-tetrahydro-1H-pyrrolo[3,2-c]pyridin-2-yl]pyridin-2-yl}butanamide] | < 4.70 |  |
| CN1CC(CC2CC2)c2[nH]c(-c3ccnc(NC(=O)Cc4ccc(F)cc4)c3)c(Nc3cscn3)c2C1=O (single isomer, unassigned) [Example 51, N-{4-[(7R or S)-7-(cyclopropylmethyl)-5-methyl-4-oxo-3-(1,3-thiazol-4-ylamino)-4,5,6,7-tetrahydro-1H-pyrrolo[3,2-c]pyridin-2-yl]pyridin-2-yl}-2-(4-fluorophenyl)acetamide] | 4.76 and < 4.70 |  |
| CCC1CNC(=O)c2c1[nH]c(-c1ccnc(NC(=O)Cc3ccc(F)cc3)c1)c2Nc1ccccc1 (single isomer, unassigned) [Example 3, N-{4-[3-anilino-7-ethyl-4-oxo-4,5,6,7-tetrahydro-1H-pyrrolo[3,2-c]pyridin-2-yl]pyridin-2-yl}-2-(4-fluorophenyl)acetamide] | 6.49 |  |
| CN1CC(CC(F)(F)F)c2[nH]c(-c3ccnc(NC(=O)Cc4ccc(F)cc4)c3)c(Nc3cscn3)c2C1=O (single isomer, unassigned) [Example 48, 2-(4-fluorophenyl)-N-{4-[(7R or S)-5-methyl-4-oxo-3-(1,3-thiazol-4-ylamino)-7-(2,2,2-trifluoroethyl)-4,5,6,7-tetrahydro-1H-pyrrolo[3,2-c]pyridin-2-yl]pyridin-2-yl}acetamide] | < 4.70 |  |
